Laboratory results reported in ChEMBL document CHEMBL1201862, “PubChem BioAssay data set” (2004).
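Protocol summary: plate cells (96-well), add compound at 5 concentrations, incubate 48 h, interpolate endpoints linearly. GI50 is the concentration that inhibits growth by half.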 Calls of active or inactive are those of the source. Cut-off read from the data, not from the text of the source: active = GI50 up to about 1.1 µM and inactive = higher.

Assays:
Experiment in all cases: inhibition of tumour cell growth, NCI panel, 48 h
[1] = tested on: SK-OV-3
[2] = tested on: T47D
[3] = tested on: HCT-116
[4] = tested on: OVCAR-4
[5] = tested on: MDA-MB-231
[6] = tested on: OVCAR-5
[7] = tested on: EKVX
[8] = tested on: LOX IMVI
[9] = tested on: RPMI-8226
[10] = tested on: OVCAR-3
[11] = tested on: SF-295
[12] = tested on: KM12
[13] = tested on: MDA-MB-435
[14] = tested on: SR
[15] = tested on: IGROV-1
[16] = tested on: CCRF-CEM
[17] = tested on: MCF7
[18] = tested on: SF-539
[19] = tested on: Hs-578T
[20] = tested on: UACC-62
[21] = tested on: A549
[22] = tested on: COLO 205
[23] = tested on: NCI/ADR-RES
[24] = tested on: OVCAR-8
[25] = tested on: HCT-15
[26] = tested on: CAKI-1
[27] = tested on: BT-549
[28] = tested on: UO-31
[29] = tested on: MDA-N
[30] = tested on: SK-MEL-5
[31] = tested on: SNB-19
[32] = tested on: HOP-62
[33] = tested on: DU-145
[34] = tested on: PC-3
[35] = tested on: K562
[36] = tested on: SF-268
[37] = tested on: U-251
[38] = tested on: SW-620
[39] = tested on: M14
[40] = tested on: A498
[41] = tested on: SN12C
[42] = tested on: SK-MEL-28
[43] = tested on: TK-10
[44] = tested on: MOLT-4
[45] = tested on: HT-29
[46] = tested on: HL-60
[47] = tested on: UACC-257
[48] = tested on: HCC 2998
[49] = tested on: SK-MEL-2
[50] = tested on: 786-0
[51] = tested on: ACHN
[52] = tested on: HOP-92
[53] = tested on: NCI-H460
[54] = tested on: NCI-H226
[55] = tested on: SNB-75
[56] = tested on: NCI-H23
[57] = tested on: NCI-H522
[58] = tested on: Malme-3M
[59] = tested on: RXF 393

For `COc1nc(-c2c[nH]c3ccccc23)cnc1N`, the GI50 [1] was 30.9 µM (inactive), the GI50 [2] was 1.56 µM (inactive) and the GI50 [3] was 21.7 µM (inactive). For the same compound, the GI50 [4] was 29.6 µM (inactive), the GI50 [5] was 18.1 µM (inactive) and the GI50 [6] was 14.4 µM (inactive). For the same compound, the GI50 [7] was 6.35 µM (inactive), the GI50 [8] was 25.3 µM (inactive) and the GI50 [9] was 1.01 µM (active). For the same compound, the GI50 [10] was 39.6 µM (inactive), the GI50 [11] was 29.4 µM (inactive) and the GI50 [12] was 9.18 µM (inactive). For the same compound, the GI50 [13] was 23.4 µM (inactive), the GI50 [14] was 15 µM (inactive) and the GI50 [15] was 19.6 µM (inactive). The GI50 [16] was 0.809 µM (active), the GI50 [17] was 2.85 µM (inactive) and the GI50 [18] was 33.7 µM (inactive). The GI50 [19] was 17.7 µM (inactive), the GI50 [20] was 16.4 µM (inactive) and the GI50 [21] was 31.2 µM (inactive). The GI50 [22] was 29 µM (inactive), the GI50 [23] was 38.5 µM (inactive) and the GI50 [24] was 31.5 µM (inactive). The GI50 [25] was 22.8 µM, the GI50 [26] was 24.6 µM (inactive) and the GI50 [27] was 33.7 µM (inactive). The GI50 [28] was 21.2 µM (inactive), the GI50 [29] was 18.4 µM (inactive) and the GI50 [30] was 37.9 µM (inactive). For the same compound, the GI50 [31] was 66.4 µM (inactive), the GI50 [32] was 48.9 µM (inactive) and the GI50 [33] was 23.4 µM (inactive). The GI50 [34] was 26.5 µM (inactive), the GI50 [35] was 33.6 µM (inactive) and the GI50 [36] was 23.6 µM (inactive). For the same compound, the GI50 [37] was 31 µM (inactive), the GI50 [38] was 32.6 µM (inactive) and the GI50 [39] was 30.1 µM (inactive). For the same compound, the GI50 [40] was 15.1 µM (inactive), the GI50 [41] was 5.87 µM (inactive) and the GI50 [42] was 25.5 µM (inactive). For the same compound, the GI50 [43] was > 100 µM (inactive), the GI50 [44] was 2.56 µM (inactive) and the GI50 [45] was 19.3 µM (inactive). The GI50 [46] was 4.85 µM (inactive), the GI50 [47] was 22.4 µM (inactive) and the GI50 [48] was 67.9 µM (inactive). The GI50 [49] was 25 µM (inactive), the GI50 [50] was 15.6 µM (inactive) and the GI50 [51] was 14.2 µM (inactive). For the same compound, the GI50 [52] was 0.0306 µM (active) and the GI50 [53] was 26.4 µM (inactive).

In the case of `CO[C@@H]1C[C@H]2[C@@H]3CC[C@H]([C@@H](C)COC(C)=O)[C@@]3(C)CC[C@@H]2[C@@]2(C)CC[C@H]3C[C@]312`, the GI50 [2] is reported as 13.2 µM (inactive), the GI50 [3] is reported as 10.2 µM (inactive) and the GI50 [54] is reported as 17.9 µM (inactive). For the same compound, the GI50 [4] was 22 µM (inactive), the GI50 [5] was 11.9 µM (inactive) and the GI50 [6] was 11.5 µM (inactive). For the same compound, the GI50 [7] was 14.5 µM (inactive), the GI50 [55] was 17.9 µM (inactive) and the GI50 [8] was 11.4 µM (inactive). The GI50 [9] was 8.67 µM (inactive), the GI50 [10] was 14.6 µM (inactive) and the GI50 [11] was 15.1 µM (inactive). For the same compound, the GI50 [12] was 11.1 µM (inactive), the GI50 [13] was 15.1 µM (inactive) and the GI50 [14] was 10 µM (inactive). For the same compound, the GI50 [15] was 15.5 µM (inactive), the GI50 [16] was 14.9 µM (inactive) and the GI50 [17] was 9.48 µM (inactive). For the same compound, the GI50 [18] was 17.5 µM (inactive), the GI50 [19] was 18.5 µM (inactive) and the GI50 [21] was 15.9 µM (inactive). The GI50 [22] was 0.879 µM (active), the GI50 [23] was 14.1 µM (inactive) and the GI50 [24] was 12.2 µM (inactive). The GI50 [25] was 13.3 µM, the GI50 [26] was 9.12 µM (inactive) and the GI50 [27] was 14.2 µM (inactive). For the same compound, the GI50 [28] was 18.5 µM (inactive), the GI50 [29] was 16.9 µM (inactive) and the GI50 [30] was 3.61 µM (inactive). For the same compound, the GI50 [31] was 16.9 µM (inactive), the GI50 [32] was 17.7 µM (inactive) and the GI50 [33] was 14 µM (inactive). For the same compound, the GI50 [56] was 12.8 µM (inactive), the GI50 [34] was 15.2 µM (inactive) and the GI50 [57] was 16.2 µM (inactive). For the same compound, the GI50 [35] was 10.2 µM (inactive), the GI50 [36] was 17.9 µM (inactive) and the GI50 [37] was 13.1 µM (inactive). For the same compound, the GI50 [38] was 11.8 µM (inactive), the GI50 [39] was 16.9 µM (inactive) and the GI50 [40] was 20 µM (inactive). For the same compound, the GI50 [41] was 16.5 µM (inactive), the GI50 [42] was 17.1 µM (inactive) and the GI50 [43] was > 10 µM (inactive). For the same compound, the GI50 [44] was 15.3 µM (inactive), the GI50 [45] was 6.92 µM (inactive) and the GI50 [46] was 3.89 µM (inactive). For the same compound, the GI50 [47] was 11.6 µM (inactive), the GI50 [48] was 15.1 µM (inactive) and the GI50 [50] was 16.5 µM (inactive). For the same compound, the GI50 [51] was 16.6 µM (inactive), the GI50 [58] was 16 µM (inactive) and the GI50 [52] was 19.9 µM (inactive). The GI50 [59] was 17.7 µM (inactive) and the GI50 [53] was 10.1 µM (inactive).
